Measurements published in article PMC6001238, “Iterative Chemical Engineering of Vancomycin Leads to Novel Vancomycin Analogs With a High in Vitro Therapeutic Index” (Frontiers in Microbiology, 2018).
In brackets after ≈: the same amount, converted by molar mass. Read-outs that look alike come from different tables or passages of the source.

Experiments:
VE 82 (VanC1) = assay: MIC, VanC1-type VRE strain VE 82; format: cell-based, Enterococcus gallinarum; details: Enterococcus gallinarum; VE 82, VanC1; read-out: MIC
Procedure, shortened: (§1)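 Read-out: lowest concentration inhibiting growth in broth microdilution, CLSI method. Water and broth-only wells acted as controls; in one case 10 μM vancomycin (final) was present with the compound.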

MRSA = assay: Minimum bactericidal concentration against MRSA; format: cell-based, Staphylococcus aureus
Description: Plates were incubated overnight at 37°C and colony growth was inspected.

[1] = tested on: Murine leukemia (L1210) cells; assay: Cytostatic activity, L1210 cell proliferation; format: cell-based; details: Mus musculus, L1210, 48 h; mean ± SD of three experiments; highest concentration tested 250 µM; 2 days; read-out: Toxicity (IC50) L1210
Procedure, shortened: (§2)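 Test compounds, serially diluted, received an equal volume of cell suspension at 300,000–500,000 cells/mL. After 37°C incubation (2 days for L1210, 3 for CEM, 4 for HeLa), cells were enumerated by Coulter counting and 50%-inhibitory concentrations calculated per cell type.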

E. faecalis VRE 29 = assay: MIC, broth microdilution, vancomycin-resistant E. faecalis VRE 29 (VanA); format: cell-based, Enterococcus faecalis
Procedure, shortened: as §1

MRSA KS2 = assay: MIC, broth microdilution, MRSA KS2; format: cell-based, Staphylococcus aureus
Procedure, shortened: as §1

VE 148 (VanB) = assay: MIC, VanB-type VRE strain VE 148; format: cell-based, Enterococcus; details: Enterococcus; VE 148, VanB; read-out: MIC
Procedure, shortened: as §1

[2] = tested on: human cervix carcinoma (HeLa) cells; assay: Cytostatic activity, HeLa cell proliferation; format: cell-based; details: Homo sapiens, HeLa, 96 h; mean ± SD of three experiments; highest concentration tested 250 µM; 4 days; read-out: Toxicity (IC50) HeLa
Procedure, shortened: as §2

VE 149 (VanB) = assay: MIC, VanB-type VRE strain VE 149; format: cell-based, Enterococcus; details: Enterococcus; VE 149, VanB; read-out: MIC
Procedure, shortened: as §1

[3] = tested on: Clostridium difficile ATJ ribotype 014/20; assay: MIC, plate drop assay, C. difficile ATJ ribotype 014/20; format: cell-based
Procedure, shortened: (§3)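 Lawns of each strain were made in soft BHI agar (0.4%) supplemented with CaCl2⋅2H2O and MgCl2⋅6H2O. Twofold compound dilutions (10 μL) were spotted, air-dried and incubated overnight at 37°C anaerobically; MIC read as cleared spots, in triplicate with water as negative control.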

MRSA KS89 = assay: MIC, broth microdilution, MRSA KS89; format: cell-based, Staphylococcus aureus
Procedure, shortened: as §1

[4] = tested on: 24 clinical MRSA isolates; assay: MIC against a set of 24 clinical MRSA isolates (range, MIC50, TI); format: cell-based, Staphylococcus aureus
Procedure, shortened: as §1

MRSA KS1 = assay: MIC, broth microdilution, MRSA KS1; format: cell-based, Staphylococcus aureus
Procedure, shortened: as §1

E. faecalis VRE 37 = assay: MIC, broth microdilution, vancomycin-resistant E. faecalis VRE 37 (VanA); format: cell-based, Enterococcus faecalis
Procedure, shortened: as §1

[5] = tested on: Clostridium difficile AIU ribotype 027; assay: MIC, plate drop assay, C. difficile AIU ribotype 027; format: cell-based
Procedure, shortened: as §3

E. faecalis VSE 1 = assay: MIC, broth microdilution, vancomycin-sensitive E. faecalis (VSE 1); format: cell-based, Enterococcus faecalis
Procedure, shortened: as §1

[6] = tested on: S. aureus VSSA (ATCC 6538); assay: MIC, broth microdilution, vancomycin-sensitive S. aureus (VSSA/MSSA, ATCC 6538); format: cell-based, Staphylococcus aureus
Procedure, shortened: as §1

VE 150 (VanB) = assay: MIC, VanB-type VRE strain VE 150; format: cell-based, Enterococcus; details: Enterococcus; VE 150, VanB; read-out: MIC
Procedure, shortened: as §1

E. faecalis VRE 6 = assay: MIC, broth microdilution, vancomycin-resistant E. faecalis VRE 6 (VanA); format: cell-based, Enterococcus faecalis
Procedure, shortened: as §1

[7] = tested on: L1210, CEM and HeLa cell lines; assay: Cytostatic activity, average or summary over L1210, CEM and HeLa; format: cell-based
Procedure, shortened: as §2

MRSA KS6 = assay: MIC, broth microdilution, MRSA KS6; format: cell-based, Staphylococcus aureus; details: Staphylococcus aureus MRSA KS6; read-out: MIC
Procedure, shortened: as §1

VE 152 (VanB) = assay: MIC, VanB-type VRE strain VE 152; format: cell-based, Enterococcus; details: Enterococcus; VE 152, VanB; read-out: MIC
Procedure, shortened: as §1

VE 157 (VanB) = assay: MIC, VanB-type VRE strain VE 157; format: cell-based, Enterococcus; details: Enterococcus; VE 157, VanB; read-out: MIC
Procedure, shortened: as §1

[8] = tested on: human T-lymphocyte (CEM) cells; assay: Cytostatic activity, CEM cell proliferation; format: cell-based; details: Homo sapiens, CCRF-CEM, 72 h; mean ± SD of three experiments; highest concentration tested 250 µM; 3 days; read-out: Toxicity (IC50) CEM
Procedure, shortened: as §2

S. aureus VRSA = assay: MIC, broth microdilution, vancomycin-resistant S. aureus (VRSA); format: cell-based, Staphylococcus aureus
Procedure, shortened: as §1

E. faecalis VRE 53 = assay: MIC, broth microdilution, vancomycin-resistant E. faecalis VRE 53 (VanA); format: cell-based, Enterococcus faecalis
Procedure, shortened: as §1

S. aureus VISA/HIP5827 = assay: MIC, broth microdilution, vancomycin-intermediate S. aureus VISA HIP5827; format: cell-based, Staphylococcus aureus
Procedure, shortened: as §1

33 clinical VRE isolates = assay: MIC against a set of 33 clinical VRE isolates (range, MIC50, TI); format: cell-based, Enterococcus faecalis
Procedure, shortened: as §1

**Q.** Which results are given for CCCCCCCCCC(=O)N[C@@H](Cc1c[nH]c2ccccc12)C(=O)N[C@H](CC(N)=O)C(=O)N[C@@H](CC(=O)O)C(=O)N[C@@H]1C(=O)NCC(=O)N[C@@H](CCCN)C(=O)N[C@@H](CC(=O)O)C(=O)N[C@H](C)C(=O)N[C@@H](CC(=O)O)C(=O)NCC(=O)N[C@H](CO)C(=O)N[C@@H]([C@H](C)CC(=O)O)C(=O)N[C@@H](CC(=O)c2ccccc2N)C(=O)O[C@@H]1C [Daptomycin, reference compound]?
**A.** MIC (VE 82 (VanC1)): 12.5 µM (≈ 20.3 µg/mL); MBC relative to MIC (MRSA): MBC equaling their MIC values; IC50 [1]: > 250 µM; MIC (E. faecalis VRE 29; Enterococcus faecalis VRE 29 (vancomycin-resistant), read-out: MIC): 50 µM (≈ 81 µg/mL); MIC-fold improvement vs. vancomycin (E. faecalis VRE 29; VRE 29, ratio of MIC of vancomycin and MIC of analogue): 8; MIC-fold improvement vs. vancomycin (MRSA KS2; MRSA KS2, ratio of MIC of vancomycin and MIC of analogue): 0.05; MIC (MRSA KS2; Staphylococcus aureus MRSA KS2, read-out: MIC): 12.5 µM (≈ 20.3 µg/mL); MIC (VE 148 (VanB)): 25 µM (≈ 40.5 µg/mL); IC50 [2]: > 250 µM; MIC (VE 149 (VanB)): 25 µM (≈ 40.5 µg/mL); MIC-fold improvement vs. vancomycin ([3]; C. difficile ATJ ribotype 014/20): 22; MIC ([3]; Clostridioides difficile, C. difficile ATJ ribotype 014/20, plate drop assay): 1.56 µM (≈ 2.53 µg/mL); MIC-fold improvement vs. vancomycin (MRSA KS89; MRSA KS8 (head; KS89 in title), ratio of MIC of vancomycin and MIC of analogue): 0.1; MIC (MRSA KS89; Staphylococcus aureus MRSA KS8 (head; KS89 in title), read-out: MIC): 6.25 µM (≈ 10.1 µg/mL); MIC Range ([4]; 24 clinical MRSA isolates): 0.78 to 12.5 µM; MIC50 ([4]; Staphylococcus aureus, median MIC, 24 clinical MRSA isolates, read-out: MIC50): 0.78 µM (≈ 1.26 µg/mL); TI (IC50/MIC50) ([4]; in vitro therapeutic index, MRSA): 321; MIC-fold improvement vs. vancomycin (MRSA KS1; MRSA KS1, ratio of MIC of vancomycin and MIC of analogue): 0.05; MIC (MRSA KS1; Staphylococcus aureus MRSA KS1, read-out: MIC): 12.5 µM (≈ 20.3 µg/mL); MIC (E. faecalis VRE 37; Enterococcus faecalis VRE 37 (vancomycin-resistant), read-out: MIC): 50 µM (≈ 81 µg/mL); MIC-fold improvement vs. vancomycin (E. faecalis VRE 37; VRE 37, ratio of MIC of vancomycin and MIC of analogue): 8; MIC-fold improvement vs. vancomycin ([5]; C. difficile AIU ribotype 027): 29; MIC ([5]; Clostridioides difficile, C. difficile AIU ribotype 027, plate drop assay): 1.56 µM (≈ 2.53 µg/mL); MIC (E. faecalis VSE 1; VSE1, Enterococcus faecalis VSE 1 (vancomycin-sensitive), read-out: MIC): > 6.25 µM; MIC-fold improvement vs. vancomycin (E. faecalis VSE 1; VSE 1, ratio of MIC of vancomycin and MIC of analogue): <0.2; MIC ([6]; ATCC6538, Staphylococcus aureus VSSA, read-out: MIC): > 6.25 µM; MIC-fold improvement vs. vancomycin ([6]; VSSA, ratio of MIC of vancomycin and MIC of analogue): <0.1; MIC (VE 150 (VanB)): 25 µM (≈ 40.5 µg/mL); MIC (E. faecalis VRE 6; Enterococcus faecalis VRE 6 (vancomycin-resistant), read-out: MIC): 6.25 µM (≈ 10.1 µg/mL); MIC-fold improvement vs. vancomycin (E. faecalis VRE 6; VRE 6, ratio of MIC of vancomycin and MIC of analogue): 32; IC50 ([7]; average IC50 used for TI in Table S5, >250 entered as 250, read-out: IC50): 250 µM; IC50 ([7]; average of L1210, CEM and HeLa, read-out: Toxicity (IC50) Average): > 250 µM; MIC (MRSA KS6): > 12.5 µM; MIC (VE 152 (VanB)): 25 µM (≈ 40.5 µg/mL); MIC (VE 157 (VanB)): 12.5 µM (≈ 20.3 µg/mL); IC50 [8]: > 250 µM; MIC (S. aureus VRSA; Staphylococcus aureus VRSA, read-out: MIC): 12.5 µM (≈ 20.3 µg/mL); MIC-fold improvement vs. vancomycin (S. aureus VRSA; VRSA, ratio of MIC of vancomycin and MIC of analogue): 8; MIC (E. faecalis VRE 53; Enterococcus faecalis VRE 53 (vancomycin-resistant), read-out: MIC): 50 µM (≈ 81 µg/mL); MIC-fold improvement vs. vancomycin (E. faecalis VRE 53; VRE 53, ratio of MIC of vancomycin and MIC of analogue): 8; MIC (S. aureus VISA/HIP5827; Staphylococcus aureus VISA/HIP5827, read-out: MIC): > 12.5 µM; MIC-fold improvement vs. vancomycin (S. aureus VISA/HIP5827; VISA/HIP5827, ratio of MIC of vancomycin and MIC of analogue): <0.5; MIC Range (33 clinical VRE isolates; 33 clinical VRE isolates): 3.13 to 12.5 µM; MIC50 (33 clinical VRE isolates; Enterococcus, median MIC, 33 clinical VRE isolates, read-out: MIC50): 6.25 µM (≈ 10.1 µg/mL); TI (IC50/MIC50) (33 clinical VRE isolates; in vitro therapeutic index, VRE): 40
